Experiment [1] concerns mRNA levels for matriptase or HAI-1. Put plainly: mRNA levels in estrogen-depleted MCF-7 cells after hormone treatment. Format: cell-based, human. To be noted: data not shown. As to the method: Northern blotting—Total RNA was extracted from cell lines with RNAzol reagent (Tel-Test, Inc., Friendswood, Tex.) according to the manufacturer's instructions. Ten micrograms of total RNA from each cell line was resolved by electrophoresis on a 1.2% phosphate-buffered agarose gel containing 2M formaldehyde. RNA was subsequently transferred to hybond-N nylon membranes (Amersham Pharmacia Biotech, Buckinghamshire, England) and hybridized to ^32P-labeled riboprobes at 65° C. for 36 hours, followed by three washes in 0.1×SSC/0.1%SDS at 80° C. for 30 minutes each to remove unbound probe. To generate the labeled riboprobes, the coding sequences of Matriptase and HAI-1 were cloned into the pcDNA3.1 vector (Invitrogen, San Diego, Calif.), and were linearized with an appropriate restriction enzyme just 5′ of the coding sequences. These linearized vectors were used in in vitro SP6 RNA polymerase reactions with ^32P-UTP (3000 Ci/mmol, NEN, Boston, Mass.) to generate labeled antisense riboprobes. To control for approximately equal loading of RNA from each cell line, labeled riboprobes directed against the message of the ribosomal protein 36B4 were generated in a similar fashion, except that a vector containing approximately 500 bp of the coding sequence was used. […]

Experiment [2] relates to matriptase. Put plainly: Induction of matriptase activation in A1N4 mammary epithelial cells (immunoblot of two-chain form with mAb M69). Format: cell-based, human. To be noted: for induction of matriptase activation (two-chain form): A1N4 cells, qualitative; for concentration at which maximal activation of matriptase was achieved: intact A1N4 cells. As to the method: FIG. 22 LPA and S1P induce the activation of matriptase.
(§1) Immunoblotting analysis: Immunobloting was conducted as previously described. Proteins were separated by 10% SDS-PAGE, transferred overnight to nitrocellulose sheets (Schleicher & Schuell, Keene, N.H.) or polyvinylidene fluoride (PVDF) and subsequently probed with mAb, as indicated. Immuno-reactive polypeptides were visualized using peroxidase-labeled anti-rat immunoglobulin and the ECL detection system (NEN, Boston, Mass.).
Induction of matriptase activation in A1N4 mammary epithelial cells: To serum starve 184 A1N4 cells, the cells were plated at 50-60% confluence, and maintained for 48-72 hrs in medium containing 0.5% serum. The activation of matriptase was then induced by incubating the cells with Iscove's Modified Dulbecco's Medium (IMEM), containing serum, as indicated in the Figure legend. Cells were then scrapped in PBS, and pelleted by centrifigation with a 5 min spin (1500×g). The cell pellets were lysed on ice for 20 min in lysis buffer (1% TritonX-100 in phosphate buffered saline). Cellular debris were removed by centrifugation for 10 min at 14,000×g. Equal protein amounts, as determined by the BCA protein micro assay (Pierce), were resolved under non-reducing, non-boiled conditions, by sodium dodecyl sulfate-polyacrylamide gel electrophoresis (SDS-PAGE), and electroblotted onto PVDF membranes (Millipore).

Experiment [3] concerns A1N4 human mammary epithelial cells. Nature of the experiment: Immunofluorescence of actin cytoskeleton rearrangement in A1N4 cells. In kind it is cell-based. As to the method:
FIG. 23 Immunofluorescence of actin rearrangement and activated matriptase following LPA and SIP stimulation.
Immunofluorescence: Cells were fixed with 2% paraformaldehyde for 10 min. The two-chain form matriptase was detected with mAb M69 and total matriptase was detected with mAb M32 for 1 hr at room temperature. This was followed by an 1 hr incubation with 1:200 dilution of FITC-conjugated goat anti-mouse (Jackson Immunoresearch, PA). Cells were viewed on a Zeiss microscope, and photographed with Kodak film.

Experiment [4] concerns the target T1, matriptase (Homo sapiens, UniProt Q9Y5Y6).
T1 construct: separated into two groups of polypeptides with apparent sizes of 45-kDa (A chain) and 25-kDa (B chain); from tissue; host or cells: human milk
T1 sequence (Q9Y5Y6 190-614 limits assumed): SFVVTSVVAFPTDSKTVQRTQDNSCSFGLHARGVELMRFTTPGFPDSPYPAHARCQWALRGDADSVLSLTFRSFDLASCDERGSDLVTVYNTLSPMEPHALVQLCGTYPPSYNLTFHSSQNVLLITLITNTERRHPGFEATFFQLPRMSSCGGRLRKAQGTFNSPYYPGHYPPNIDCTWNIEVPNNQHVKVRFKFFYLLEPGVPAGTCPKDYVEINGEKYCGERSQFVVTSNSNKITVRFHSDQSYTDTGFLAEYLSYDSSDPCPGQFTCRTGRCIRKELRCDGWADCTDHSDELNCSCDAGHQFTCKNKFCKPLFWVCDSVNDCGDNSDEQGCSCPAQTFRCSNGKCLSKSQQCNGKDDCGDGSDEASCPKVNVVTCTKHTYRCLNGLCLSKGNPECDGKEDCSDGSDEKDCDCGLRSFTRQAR
T1 sequence (Q9Y5Y6 615-854 limits assumed): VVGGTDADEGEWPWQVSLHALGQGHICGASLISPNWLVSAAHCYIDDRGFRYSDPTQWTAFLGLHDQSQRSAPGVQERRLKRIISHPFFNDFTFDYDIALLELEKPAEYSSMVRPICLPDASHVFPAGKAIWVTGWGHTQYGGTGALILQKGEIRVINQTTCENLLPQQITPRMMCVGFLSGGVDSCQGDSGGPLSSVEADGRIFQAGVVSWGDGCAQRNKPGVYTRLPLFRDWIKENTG
Put plainly: Proteolytic activity assay (cleavage rate of fluorescent substrate BOC-Gln-Ala-Arg-AMC). In kind it is biochemical. The conditions noted are these: pH 8.0, 37° C. The procedure: (§2) FIG. 11 Inhibition of matriptase by HAI-1. Matriptase and HAI-1 were isolated from human milk by anti-matriptase mAb 21-9 immunoaffinity chromatography, as described previously, and were maintained in an uncomplexed status in elution buffer, 0.1 M glycine, pH 2.4.
[…] Louis), as a substrate. The rate of cleavage was determined with a fluorescence spectrophotometer (Hitachi, F-4500).

Experiment [5] addresses T1, matriptase. Put plainly: Gelatin zymography of matriptase and matriptase/HAI-1 complex. In kind it is biochemical. To be noted: 1 mg/ml gelatin zymogram.
Description: as §2

In experiment [6] the target is T1, matriptase. Nature of the experiment: Binding of HAI-1 to matriptase (95-kDa complex formation, immunoblot with mAb 21-9). The procedure:
as §2, §1
A general note: In western blotting, separated proteins are transferred to a membrane and probed.

`CC(=O)[C@H]1CC[C@H]2[C@@H]3CCC4=CC(=O)CC[C@]4(C)[C@H]3CC[C@]12C` [progesterone]: in experiment [1] (100 nM 17β-estradiol plus 100 nM progesterone), the “change in mRNA levels for matriptase or HAI-1” value is given as “no change”.

Turning to `C=C1[C@@H](C)[C@H]2[C@H](Cc3ccccc3)NC(=O)[C@]23[C@H](OC(C)=O)/C=C/[C@@](C)(O)C(=O)[C@@H](C)C/C=C/[C@H]3[C@@H]1O` [cytochalasin D], the “block of S1P-induced activation of matriptase” value in experiment [2] (pretreatment of cells before S1P) is on record as “failed to block the activation of matriptase by S1P”.

For `C[C@]12CC[C@@H]3c4ccc(O)cc4CC[C@H]3[C@@H]1CC[C@@H]2O` [17β-estradiol], the “change in mRNA levels for matriptase or HAI-1” value in experiment [1] (100 nM 17β-estradiol) is reported as “no change”.

Regarding `CCCCCCCCCCCCC/C=C/[C@@H](O)[C@@H](N)COP(=O)(O)O` [S1P, shingosine 1-phosphate], in experiment [2], the “induction of matriptase activation (two-chain form)” value (“induction of matriptase activation” below) was “could mimic serum and LDL induced activation of matriptase”; the “concentration at which maximal activation of matriptase was achieved” value (“concentration” below) amounted to 1 ng/mL. Besides, the “potency in inducing the activation of matriptase relative to LPA” value in experiment [2] (S1P versus LPA) was found to be 100 fold. In experiment [2] (after S1P addition), the “time at which activation of matriptase started after addition” value is at most 5 min and the “time to maximal activation of matriptase” value is on record as at most 10 min. In experiment [2] (molar value in brackets), the “concentration” value stood at 2.6 nM. The “actin cytoskeleton rearrangement (stress-fiber formation)” value in experiment [3] is given as “induced actin cytoskelaton reorganization”.

Consider Ceramide1-P, for which, in experiment [2], the “induction of matriptase activation” value is “induced the activation of matriptase although at higher concentration than S1P”.

As for lysophosphatidic acid [LPA], in experiment [2], the “induction of matriptase activation” value is “could mimic serum and LDL induced activation of matriptase”; the “concentration” value was found to be 1000 ng/mL. Moreover, the “actin cytoskeleton rearrangement (stress-fiber formation)” value in experiment [3] is given as “induced actin cytoskelaton reorganization”.

B1: HAI-1: type-1, integral membrane, Kunitz-type serine protease inhibitor, cognate inhibitor of matriptase (protein, UniProt O43278 36-529, looked up)
Kunitz-type protease …: GPPPAPPGLPAGADCLNSFTAGVPGFVLDTNASVSNGATFLESPTVRRGWDCVRACCTTQNCNLALVELQPDRGEDAIAACFLINCLYEQNFVCKFAPREGFINYLTREVYRSYRQLRTQGFGGSGIPKAWAGIDLKVQPQEPLVLKDVENTDWRLLRGDTDVRVERKDPNQVELWGLKEGTYLFQLTVTSSDHPEDTANVTVTVLSTKQTEDYCLASNKVGRCRGSFPRWYYDPTEQICKSFVYGGCLGNKNNYLREEECILACRGVQGGPLRGSSGAQATFPQGPSMERRHPVCSGTCQPTQFRCSNGCCIDSFLECDDTPNCPDASDEAACEKYTSGFDELQRIHFPSDKGHCVDLPDTGLCKESIPRWYYNPFSEHCARFTYGGCYGNKNNFEEEQQCLESCRGISKKDVFGLRREIPIPSTGSVEMAVAVFLVICIVVVVAILGYCFFKNQRKDFHGHHHHPPPTPASSTVSTTEDTEHLVYNHTTRPL
B1: the “rate of cleavage of synthetic fluorescent substrate by matriptase after HAI-1 binding” value in experiment [4] is listed as “drastically decreased”. Further, the “gelatinolytic activity of the 95-kDa matriptase/HAI-1 complex” value in experiment [5] is listed as “only trace amounts of gelatinolytic activity”. For the same molecule, the “incubation time after which uncomplexed matriptase was undetectable by immunoblot” value in experiment [6] (pH 8.0, 37° C.) was 30 min. In addition, in experiment [6] (pH raised to 8.0, 37° C.), the “formation of 95-kDa matriptase/HAI-1 complex” value is recorded as “rapidly occurred”.

The values are drawn from patent US20030170245A1, “Activation of matriptase and diagnostic and therapeutic methods based thereon” (priority 2002, published 2003).
